# Measurements: US20250304620A1, “ANTIMICROBIAL PEPTIDE AND APPLICATION THEREOF” (priority 2023, published 2025)
# Marks after values point to notes of the source that are not given here. Non-standard residues stand in square brackets, D forms with d. Residues, ends and D or L forms follow the SMILES beside them. dPhe(4-CF3) = N[C@H](Cc1ccc(C(F)(F)F)cc1)C(=O)O; dPhe(3,4-F2) = N[C@H](Cc1ccc(F)c(F)c1)C(=O)O
# Key:
# [1] = test system: Staphylococcus aureus (NRS 384); assay: microbe, parasite or virus in culture; format: cell-based; details: NRS 384
# In short: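 MICs were read against S. aureus strain NRS 384 using twofold serial dilution by CLSI microdilution rules. Levofloxacin and Cbf-K16 were the reference controls, and the test was repeated 5 times in parallel.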
# [2] = test system: Bacillus subtilis ATCC 6633; format: cell-based
# In short: (§1)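 Minimum inhibitory concentration served as the read-out, obtained with a twofold serial dilution microdilution method run per CLSI guidelines and performed in five parallel replicates.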
# [3] = test system: Candida albicans ATCC MYA-2876; format: cell-based
# In short: as §1
# [4] = test system: Candida glabrata ATCC 15126; format: cell-based
# In short: as §1
# Candida krusei ATCC 6258 = format: cell-based
# In short: as §1
# [5] = test system: Candida tropicalis ATCC 750; format: cell-based
# In short: as §1
# Candida utilis ATCC 9950 = format: cell-based
# In short: as §1
# [6] = test system: Corynebacterium ATCC 7715; format: cell-based
# In short: as §1
# Enterococcus ATCC 29212 = format: cell-based
# In short: as §1
# [7] = test system: Escherichia coli ATCC 25922; format: cell-based
# In short: as §1
# [8] = test system: Klebsiella pneumoniae ATCC 700603; format: cell-based
# In short: as §1
# [9] = test system: Pseudomonas aeruginosa ATCC 27853; format: cell-based
# In short: as §1
# [10] = test system: Salmonella typhimurium ATCC 14028; format: cell-based
# In short: as §1
# [11] = test system: Serratia marcescens ATCC 29021; format: cell-based
# In short: as §1
# [12] = test system: Staphylococcus aureus ATCC 25923; format: cell-based
# In short: as §1
# [13] = test system: Trichophyton ATCC MYA-4438; format: cell-based
# In short: as §1
# [14] = test system: Shigella flexneri ATCC 12022; assay: MIC against clinically common bacterial strain; format: cell-based
# In short: as §1
# [15] = test system: Staphylococcus aureus (NRS 384); details: NRS 384, 3 h
# Description: Trypsin (250 U/mg, pH=8.0) and AMPs (LV-1 to LV-30) were mixed in a ratio of 1:10 (w/w) and added to a reaction buffer (0.2 M sodium phosphate, 1 mM CaCl2), pH 7.5), and then incubated at 37° C. for 3 h.
# [16] = test system: Escherichia coli ATCC 25922; assay: Oral formulations on mice with systemic bacterial infection; format: in vivo, ICR mice; details: three times a day for 7 days; for Number of mice that died on each day after infection: day 4 / Number of mice that died on each day after infection: day 5 / Number of mice that died on each day after infection: day 6 / Number of mice that died on each day after infection: day 7 / Number of mice that died on each day after infection: day 8 / Average survival times (Days): n = 10; for Average survival times (Days): observed for 14 d; for survival time of mice infected with Escherichia coli: gavage, observed 14 d
# In short: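 Survival time and deaths were logged over a 14 d observation after oral gavage dosing (by body weight, thrice daily, 7 days, starting right after infection). Model: mixed-sex ICR mice, n=10 per group, intraperitoneal injection of E. coli ATCC 25922 suspension (0.2 mL, 1×10^7 CFU/mL).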
# [17] = Serum stability assay (residual level by RP-HPLC); details: human
Structure (SMILES),MIC against Staphylococcus aureus (NRS 384) [1] [µg/mL],MIC Bacillus subtilis ATCC 6633 [2] [µg/mL],MIC Candida albicans ATCC MYA-2876 [3] [µg/mL],MIC Candida glabrata ATCC 15126 [4] [µg/mL],MIC Candida krusei ATCC 6258 (Candida krusei ATCC 6258) [µg/mL],MIC Candida tropicalis ATCC 750 [5] [µg/mL],MIC Candida utilis ATCC 9950 (Candida utilis ATCC 9950) [µg/mL],MIC Corynebacterium ATCC 7715 [6] [µg/mL],MIC Enterococcus ATCC 29212 (Enterococcus ATCC 29212) [µg/mL],MIC Escherichia coli ATCC 25922 [7] [µg/mL],MIC Klebsiella pneumoniae ATCC 700603 [8] [µg/mL],MIC Pseudomonas aeruginosa ATCC 27853 [9] [µg/mL],MIC Salmonella typhimurium ATCC 14028 [10] [µg/mL],MIC Serratia marcescens ATCC 29021 [11] [µg/mL],MIC Staphylococcus aureus ATCC 25923 [12] [µg/mL],MIC Trichophyton ATCC MYA-4438 [13] [µg/mL],MIC Shigella flexneri ATCC 12022 [14] [µg/mL],Trypsin MIC [15] [µg/mL],Number of mice that died on each day after infection: day 4 ([16]; 1 mg/kg gavage) [Mouse],Number of mice that died on each day after infection: day 5 ([16]; 1 mg/kg gavage) [Mouse],other results
"CC(=O)N[C@H](CCCNC(=N)N)C(=O)N[C@H](CCCCN)C(=O)N[C@H](CC(C)C)C(=O)N[C@H](CC(C)C)C(=O)N[C@H](Cc1ccc(F)c(F)c1)C(=O)N[C@H](CCCCN)C(=O)N[C@H](CC(C)C)C(=O)N[C@H](CCCCN)C(=O)N[C@H](Cc1ccc(F)c(F)c1)C(=O)N[C@H](CCCCN)C(=O)N[C@H](CCCNC(=N)N)C(N)=O [LV-6] (Ac-[dR][dK][dL][dL][dPhe(3,4-F2)][dK][dL][dK][dPhe(3,4-F2)][dK][dR]-NH2)",1,4,16,8,4,4,8,2,2,1,4,1,2,8,1,8,4,1,1,0,"Number of mice that died on each day after infection: day 4 ([16]; 0.2 mg/kg gavage): 1 Mouse; Number of mice that died on each day after infection: day 5 ([16]; 0.2 mg/kg gavage): 3 Mouse; Number of mice that died on each day after infection: day 6 ([16]; 0.2 mg/kg gavage): 2 Mouse; Number of mice that died on each day after infection: day 7 ([16]; 0.2 mg/kg gavage): 0 Mouse; Number of mice that died on each day after infection: day 8 ([16]; 0.2 mg/kg gavage): 0 Mouse; Average survival times (Days) ([16]; 0.2 mg/kg gavage): 8.7** Days; Number of mice that died on each day after infection: day 6 ([16]; 1 mg/kg gavage): 1 Mouse; Number of mice that died on each day after infection: day 7 ([16]; 1 mg/kg gavage): 1 Mouse; Number of mice that died on each day after infection: day 8 ([16]; 1 mg/kg gavage): 1 Mouse; Average survival times (Days) ([16]; 1 mg/kg gavage): 10.9*** Days; Number of mice that died on each day after infection: day 4 ([16]; 5 mg/kg gavage): 2 Mouse; Number of mice that died on each day after infection: day 5 ([16]; 5 mg/kg gavage): 1 Mouse; Number of mice that died on each day after infection: day 6 ([16]; 5 mg/kg gavage): 1 Mouse; Number of mice that died on each day after infection: day 7 ([16]; 5 mg/kg gavage): 0 Mouse; Number of mice that died on each day after infection: day 8 ([16]; 5 mg/kg gavage): 0 Mouse; Average survival times (Days) ([16]; 5 mg/kg gavage): 10.3*** Days; survival time of mice infected with Escherichia coli [16]: superior to those of the Levofloxacin group; remaining at 12 h, 0.91 mg/mL [17]: 98%"
CC(=O)N[C@H](CCCNC(=N)N)C(=O)N[C@H](CCCCN)C(=O)N[C@H](CC(C)C)C(=O)N[C@H](CC(C)C)C(=O)N[C@H](Cc1ccccc1)C(=O)N[C@H](CCCNC(=N)N)C(=O)N[C@H](CC(C)C)C(=O)N[C@H](CCCCN)C(=O)N[C@H](Cc1ccccc1)C(=O)N[C@H](CCCNC(=N)N)C(=O)N[C@H](CCCCN)C(N)=O [LV-2] (Ac-[dR][dK][dL][dL][dF][dR][dL][dK][dF][dR][dK]-NH2),1,2,16,16,16,16,8,4,4,1,4,1,2,4,2,8,2,1,0,2,"Number of mice that died on each day after infection: day 4 ([16]; 0.2 mg/kg gavage): 1 Mouse; Number of mice that died on each day after infection: day 5 ([16]; 0.2 mg/kg gavage): 2 Mouse; Number of mice that died on each day after infection: day 6 ([16]; 0.2 mg/kg gavage): 1 Mouse; Number of mice that died on each day after infection: day 7 ([16]; 0.2 mg/kg gavage): 1 Mouse; Number of mice that died on each day after infection: day 8 ([16]; 0.2 mg/kg gavage): 1 Mouse; Average survival times (Days) ([16]; 0.2 mg/kg gavage): 9.1** Days; Number of mice that died on each day after infection: day 6 ([16]; 1 mg/kg gavage): 1 Mouse; Number of mice that died on each day after infection: day 7 ([16]; 1 mg/kg gavage): 0 Mouse; Number of mice that died on each day after infection: day 8 ([16]; 1 mg/kg gavage): 0 Mouse; Average survival times (Days) ([16]; 1 mg/kg gavage): 11.4**** Days; Number of mice that died on each day after infection: day 4 ([16]; 5 mg/kg gavage): 0 Mouse; Number of mice that died on each day after infection: day 5 ([16]; 5 mg/kg gavage): 3 Mouse; Number of mice that died on each day after infection: day 6 ([16]; 5 mg/kg gavage): 1 Mouse; Number of mice that died on each day after infection: day 7 ([16]; 5 mg/kg gavage): 0 Mouse; Number of mice that died on each day after infection: day 8 ([16]; 5 mg/kg gavage): 0 Mouse; Average survival times (Days) ([16]; 5 mg/kg gavage): 10.5*** Days; survival time of mice infected with Escherichia coli [16]: superior to those of the Levofloxacin group; remaining at 12 h, 0.91 mg/mL [17]: 97.4%"
CC(=O)N[C@H](CCCNC(=N)N)C(=O)N[C@H](CCCCN)C(=O)N[C@H](CC(C)C)C(=O)N[C@H](CC(C)C)C(=O)N[C@H](Cc1ccc(C(F)(F)F)cc1)C(=O)N[C@H](CCCCN)C(=O)N[C@H](CC(C)C)C(=O)N[C@H](CCCCN)C(=O)N[C@H](Cc1ccc(C(F)(F)F)cc1)C(=O)N[C@H](CCCCN)C(=O)N[C@H](CCCNC(=N)N)C(N)=O [LV-9] (Ac-[dR][dK][dL][dL][dPhe(4-CF3)][dK][dL][dK][dPhe(4-CF3)][dK][dR]-NH2),1,8,8,8,16,16,16,2,4,2,2,2,2,4,2,16,2,1,1,1,"Number of mice that died on each day after infection: day 6 ([16]; 1 mg/kg gavage): 1 Mouse; Number of mice that died on each day after infection: day 7 ([16]; 1 mg/kg gavage): 2 Mouse; Number of mice that died on each day after infection: day 8 ([16]; 1 mg/kg gavage): 0 Mouse; Average survival times (Days) ([16]; 1 mg/kg gavage): 9.9** Days; remaining at 12 h, 0.91 mg/mL [17]: 97.3%"
